The values that follow come from patent US20250289813A1, “CDK INHIBITORS, PHARMACEUTICAL COMPOSITIONS, AND THERAPEUTIC APPLICATIONS” (ONQUALITY PHARMACEUTICALS CHINA LTD., priority 2022, published 2025).

One experiment deals with CDK4/cyclin D1 (Homo sapiens (Human), UniProt P11802). Briefly: CDK4 Caliper Mobility Shift assay. Type of experiment: biochemical. The method, then: (§1) A Caliper Mobility Shift assay was used to determine the inhibitory activities of a compound against CDK4/cyclin D1 and CDK6/cyclin D1 in their respective kinase buffers (CDK4: 20 mM HEPES, pH 7.5, and 0.01% Triton X-100; CDK6: 50 mM HEPES, pH 7.5, and 0.0015% BRIJ-35). The CDK4/cyclin D1 and CDK6/cyclin D1 were obtained from PROQINASE and CARNA, respectively. A FAM-labeled peptide was obtained from GL.
Sequence of CDK4/cyclin D1 (P11802 whole entry): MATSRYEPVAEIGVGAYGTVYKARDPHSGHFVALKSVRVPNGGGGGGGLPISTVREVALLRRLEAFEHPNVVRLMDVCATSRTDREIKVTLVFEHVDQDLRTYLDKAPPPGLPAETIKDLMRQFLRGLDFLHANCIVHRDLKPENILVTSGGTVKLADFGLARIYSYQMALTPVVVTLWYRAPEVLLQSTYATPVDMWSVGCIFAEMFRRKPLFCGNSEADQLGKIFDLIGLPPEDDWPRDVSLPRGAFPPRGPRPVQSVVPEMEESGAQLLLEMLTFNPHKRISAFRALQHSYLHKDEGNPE
Sequence of CDK4/cyclin D1 (P24385 whole entry partner): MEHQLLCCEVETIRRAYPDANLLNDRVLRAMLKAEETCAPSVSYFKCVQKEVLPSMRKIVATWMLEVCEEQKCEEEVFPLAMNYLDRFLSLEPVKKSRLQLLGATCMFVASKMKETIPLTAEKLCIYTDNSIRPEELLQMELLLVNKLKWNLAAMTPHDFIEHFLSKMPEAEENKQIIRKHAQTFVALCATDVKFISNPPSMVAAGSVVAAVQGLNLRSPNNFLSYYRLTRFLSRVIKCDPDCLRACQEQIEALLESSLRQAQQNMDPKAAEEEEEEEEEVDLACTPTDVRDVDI
(§2) The compound at predetermined concentrations was pre-incubated with CDK4/cyclin D1 or CDK6/cyclin D1 in a 384-well microplate at room temperature for 10 min. The FAM-labeled peptide and ATP were subsequently added to initiate the kinase reactions. The final enzyme concentrations were 15 nM for CDK4 and 7.5 nM for CDK6. The final ATP concentrations were […] for CDK4 and […] for CDK6. The microplate was allowed to incubate at 28° C. The kinase reactions were stopped by adding a stop buffer (100 mM HEPES, pH 7.5, 0.012% BRIJ-35, 0.2% Coating Reagent 3 (Caliper Life Sciences), and […]). Conversion data were recorded and utilized to calculate the percent inhibition values for each compound and an IC50 value was then determined. The results are summarized in Table 1, where the symbol “***” represents a value no greater than 200 nM, the symbol “**” represents a value greater than 200 nM but no greater than 500 nM, and the symbol “*” represents a value greater than 500 nM.

A further experiment addresses CDK6/cyclin D1 (Homo sapiens (Human), UniProt Q00534). Briefly: CDK6 Caliper Mobility Shift assay. Type of experiment: biochemical. The method, then: as §1, §2
Experiment [1] relates to MCF-7 human breast cancer cells. As to the kind of experiment: CELLTITER-GLO luminescent cell viability assay. Type of experiment: cell-based. The settings on record: MCF7, 192 h, MCF-7 cells, 8 days, read-out: EC50 (Effect on Cell Viability). The method, then: A CELLTITER-GLO luminescent cell viability assay was carried out using MCF-7 human breast cancer cells under the normal growth condition. The MCF-7 human breast cancer cells were grown at 37° C. in a 5% CO2 humidified incubator in EMEM, supplemented 10% FBS, 0.01 mg/mL bovine insulin. The cells were seeded at a 3,000 cells/well in a 96-well tissue culture plate. The cells were allowed to adhere overnight in the incubator. A compound (5 μL) in a medium at a predetermined concentration. After the cells was incubated at 37° C. for 8 days, a CELLTITER-GLO detection solution (100 μL) was added. The cells were mixed on an orbital shaker for 5 min and then incubated for additional 10 min. The plate was read with an ENVISION reader. The results are summarized in Table 2, where the symbol “+++” represents a value no greater than 1 μM, the symbol “++” represents a value greater than 1 μM but no greater than 10 μM, and the symbol “+” represents a value greater than 10 μM.
In general terms: In ATP-based viability assays light output follows the ATP content of the culture.

Sequence of CDK6/cyclin D1 (Q00534 whole entry): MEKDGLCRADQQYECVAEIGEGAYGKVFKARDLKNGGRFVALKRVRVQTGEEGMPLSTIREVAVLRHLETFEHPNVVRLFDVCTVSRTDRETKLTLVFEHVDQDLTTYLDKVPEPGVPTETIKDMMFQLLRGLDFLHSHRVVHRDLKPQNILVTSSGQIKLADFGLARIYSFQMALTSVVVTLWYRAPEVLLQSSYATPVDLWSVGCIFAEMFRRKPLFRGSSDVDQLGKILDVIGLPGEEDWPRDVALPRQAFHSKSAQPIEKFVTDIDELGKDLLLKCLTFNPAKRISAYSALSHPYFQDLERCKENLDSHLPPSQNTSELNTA
Sequence of CDK6/cyclin D1 (P24385 whole entry partner): as the sequence (P24385 whole entry partner) above

For the compound `CC(=O)c1c(C)c2cnc(Nc3ccc(N4CCN(S(=O)(=O)O)CC4)cn3)nc2n(C2CCCC2)c1=O` [Compound 6.1, 4-(6-((6-Acetyl-8-cyclopentyl-5-methyl-7-oxo-7,8-dihydropyrido[2,3-d]-pyrimidin-2-yl)amino)pyridin-3-yl)piperazine-1-sulfonic acid], the IC50 was at most 200 nM on CDK4/cyclin D1 and 200 to 500 nM on CDK6/cyclin D1.
Take `CC(=O)c1c(C)c2cnc(Nc3ccc(N4CCN(S(N)(=O)=O)C[C@@H]4C)cn3)nc2n(C2CCCC2)c1=O` [Compound A3, (S)-4-(6-((6-acetyl-8-cyclopentyl-5-methyl-7-oxo-7,8-dihydropyrido[2,3-d]-pyrimidin-2-yl)-amino)pyridin-3-yl)-3-methylpiperazine-1-sulfonamide]: the IC50 at CDK4/cyclin D1 and at CDK6/cyclin D1 was at most 200 nM throughout. Moreover, in experiment [1], the EC50 lay in the range of 1000 to 10000 nM.
Regarding `CC(=O)c1c(C)c2cnc(Nc3ccc(N4CCN(S(=O)(=O)NC(=O)OC(C)(C)C)CC4)cn3)nc2n(C2CCCC2)c1=O` [Compound A4, tert-butyl ((4-(6-((6-acetyl-8-cyclopentyl-5-methyl-7-oxo-7,8-dihydropyrido[2,3-d]pyrimidin-2-yl)amino)pyridin-3-yl)piperazin-1-yl)sulfonyl)carbamate], the IC50 at CDK4/cyclin D1 and at CDK6/cyclin D1 was at most 200 nM throughout. In addition, the EC50 in experiment [1] is over 10000 nM.
Consider `CC(=O)c1c(C)c2cnc(Nc3ccc(N4CCN(S(N)(=O)=O)CC4)cn3)nc2n(C2CCCC2)c1=O` [Compound A5, 4-(6-((6-acetyl-8-cyclopentyl-5-methyl-7-oxo-7,8-dihydropyrido[2,3-d]pyrimidin-2-yl)amino)pyridin-3-yl)-piperazine-1-sulfonamide], for which the IC50 on CDK4/cyclin D1 is at most 200 nM; on CDK6/cyclin D1, 200 to 500 nM.
Take `CC(=O)c1c(C)c2cnc(Nc3ccc(N4CCN(S(=O)(=O)N5CCCC[C@@H]5CO)CC4)cn3)nc2n(C2CCCC2)c1=O` [Compound A7, (R)-6-acetyl-8-cyclopentyl-2-((5-(4-((2-(hydroxymethyl)piperidin-1-yl)sulfonyl)-piperazin-1-yl)pyridin-2-yl)amino)-5-methylpyrido[2,3-d]pyrimidin-7(8H)-one]: the IC50 at CDK4/cyclin D1 and on CDK6/cyclin D1 was at most 200 nM throughout. In addition, the EC50 in experiment [1] was 1000 to 10000 nM.
In the case of `CC(=O)c1c(C)c2cnc(Nc3ccc(N4CCN(S(=O)(=O)NC(=O)OCC(=O)O)CC4)cn3)nc2n(C2CCCC2)c1=O` [Compound A11, 2-((((4-(6-((6-Acetyl-8-cyclopentyl-5-methyl-7-oxo-7,8-dihydropyrido[2,3-d]-pyrimidin-2-yl)amino)pyridin-3-yl)piperazin-1-yl)sulfonyl)carbamoyl)oxy)acetic acid], the IC50 at CDK4/cyclin D1 was 200 to 500 nM; at CDK6/cyclin D1, at most 200 nM.
With `CC(=O)c1c(C)c2cnc(Nc3ccc(N4CCN(S(=O)(=O)NC(=O)OCCNC(=O)[C@@H](C)N)CC4)cn3)nc2n(C2CCCC2)c1=O` [Compound A16, (R)-2-(2-Aminopropanamido)ethyl ((4-(6-((6-acetyl-8-cyclopentyl-5-methyl-7-oxo-7,8-dihydropyrido[2,3-d]pyrimidin-2-yl)amino)pyridin-3-yl)piperazin-1-yl)sulfonyl)-carbamate], the IC50 on CDK4/cyclin D1 and at CDK6/cyclin D1 was at most 200 nM in each case.
Consider `CC(=O)c1c(C)c2cnc(Nc3ccc(N4CCN(S(=O)(=O)NC(=O)OCCNC(=O)[C@@H](N)CC(C)C)CC4)cn3)nc2n(C2CCCC2)c1=O` [Compound A17, (S)-2-(2-Amino-4-methylpentanamido)ethyl ((4-(6-((6-acetyl-8-cyclopentyl-5-methyl-7-oxo-7,8-dihydropyrido[2,3-d]pyrimidin-2-yl)amino)pyridin-3-yl)piperazin-1-yl)-sulfonyl)carbamate], for which the IC50 at CDK4/cyclin D1 and at CDK6/cyclin D1 was at most 200 nM throughout.
Turning to `CC(=O)c1c(C)c2cnc(Nc3ccc(N4CCN(S(=O)(=O)NC(=O)OCCNC(=O)CN)CC4)cn3)nc2n(C2CCCC2)c1=O` [Compound A20, 2-(2-Aminoacetamido)ethyl ((4-(6-((6-acetyl-8-cyclopentyl-5-methyl-7-oxo-7,8-dihydropyrido[2,3-d]pyrimidin-2-yl)amino)pyridin-3-yl)piperazin-1-yl)sulfonyl)carbamate], the IC50 on CDK4/cyclin D1 and on CDK6/cyclin D1 was at most 200 nM throughout.
`CC(=O)c1c(C)c2cnc(Nc3ccc(N4CCN(S(=O)(=O)NC(=O)OCCNC(=O)[C@H]5CCCN5)CC4)cn3)nc2n(C2CCCC2)c1=O` [Compound A21, (R)-2-(Pyrrolidine-2-carboxamido)ethyl ((4-(6-((6-acetyl-8-cyclopentyl-5-methyl-7-oxo-7,8-dihydropyrido[2,3-d]pyrimidin-2-yl)amino)pyridin-3-yl)piperazin-1-yl)sulfonyl)-carbamate]: the IC50 at CDK4/cyclin D1 and on CDK6/cyclin D1 was at most 200 nM in each case.
Consider `CC(=O)c1c(C)c2cnc(Nc3ccc(N4CCN(S(=O)(=O)NC(=O)C5CC5)CC4)cn3)nc2n(C2CCCC2)c1=O` [Compound A38, N-((4-(6-((6-Acetyl-8-cyclopentyl-5-methyl-7-oxo-7,8-dihydropyrido[2,3-d]-pyrimidin-2-yl)amino)pyridin-3-yl)piperazin-1-yl)sulfonyl)cyclopropanecarboxamide], for which the IC50 on CDK4/cyclin D1 and on CDK6/cyclin D1 was at most 200 nM throughout.
On to `CC(=O)c1c(C)c2cnc(Nc3ccc(N4CCN(S(=O)(=O)NC(=O)C5CCOCC5)CC4)cn3)nc2n(C2CCCC2)c1=O` [Compound A40, N-((4-(6-((6-Acetyl-8-cyclopentyl-5-methyl-7-oxo-7,8-dihydropyrido[2,3-d]-pyrimidin-2-yl)amino)pyridin-3-yl)piperazin-1-yl)sulfonyl)tetrahydro-2H-pyran-4-carboxamide], for which the IC50 on CDK4/cyclin D1 and on CDK6/cyclin D1 was at most 200 nM in each case.
For `CNS(=O)(=O)N1CCN(c2ccc(Nc3ncc4c(C)c(C(C)=O)c(=O)n(C5CCCC5)c4n3)nc2)CC1` [Compound A46, 4-(6-((6-Acetyl-8-cyclopentyl-5-methyl-7-oxo-7,8-dihydropyrido[2,3-d]-pyrimidin-2-yl)amino)pyridin-3-yl)-N-methylpiperazine-1-sulfonamide], the concentration for half-maximal inhibition (IC50) at CDK4/cyclin D1 is at most 200 nM; at CDK6/cyclin D1, 200 to 500 nM.
`CC(=O)c1c(C)c2cnc(Nc3ccc(N4CCN(S(=O)(=O)N(C)C)CC4)cn3)nc2n(C2CCCC2)c1=O` [Compound A50, 4-(6-((6-Acetyl-8-cyclopentyl-5-methyl-7-oxo-7,8-dihydropyrido[2,3-d]-pyrimidin-2-yl)amino)pyridin-3-yl)-N,N-dimethylpiperazine-1-sulfonamide]: the IC50 on CDK4/cyclin D1 and on CDK6/cyclin D1 was 200 to 500 nM throughout.
For `CC(=O)c1c(C)c2cnc(Nc3ccc(N4CCN(S(=O)(=O)n5ccnc5N)CC4)cn3)nc2n(C2CCCC2)c1=O` [Compound A57, 6-Acetyl-2-((5-(4-((2-amino-1H-imidazol-1-yl)sulfonyl)piperazin-1-yl)pyridin-2-yl)amino)-8-cyclopentyl-5-methylpyrido[2,3-d]pyrimidin-7(8H)-one], the IC50 at CDK4/cyclin D1 and at CDK6/cyclin D1 was at most 200 nM in each case.
For `CC(=O)c1c(C)c2cnc(Nc3ccc(N4CCN(S(=O)(=O)n5ccnc5)CC4)cn3)nc2n(C2CCCC2)c1=O` [Compound A58, 2-((5-(4-((1H-Imidazol-1-yl)sulfonyl)piperazin-1-yl)pyridin-2-yl)amino)-6-acetyl-8-cyclopentyl-5-methylpyrido[2,3-d]pyrimidin-7(8H)-one], the EC50 in experiment [1] was at most 1000 nM.
Regarding `CC(=O)c1c(C)c2cnc(Nc3ccc(N4CCN(S(=O)(=O)OC5CCCC5)CC4)cn3)nc2n(C2CCCC2)c1=O` [Compound B4, Cyclopentyl 4-(6-((6-acetyl-8-cyclopentyl-5-methyl-7-oxo-7,8-dihydropyrido[2,3-d]pyrimidin-2-yl)amino)pyridin-3-yl)piperazine-1-sulfonate], the IC50 was at most 200 nM at CDK4/cyclin D1 and 200 to 500 nM on CDK6/cyclin D1.
Regarding `CC(=O)c1c(C)c2cnc(Nc3ccc(N4CCN(S(=O)(=O)C(C)C)CC4)cn3)nc2n(C2CCCC2)c1=O` [Compound C1, 6-acetyl-8-cyclopentyl-2-[[5-(4-isopropylsulfonylpiperazin-1-yl)-2-pyridyl]-amino]-5-methylpyrido[2,3-d]pyrimidin-7-one], the IC50 on CDK4/cyclin D1 and on CDK6/cyclin D1 was at most 200 nM throughout.

For orientation: IC50 means the concentration that inhibits the measured activity by half. By EC50 is commonly meant the concentration at which the effect is half-maximal.
